The test system of data set [1] is 1321N1 (human) astrocytic line. As to the kind of experiment: 1321N1 oxidative stress assay (serum withdrawal, DCF). The note with it: for Lowest dose with toxicity: 1321N1; for Maximal % reduction in Oxidative stress: 1321N1, DCF fluorescence; for IC50: 1321N1, 24 h pre-treatment, serum withdrawal, DCF.
Experimental: (§1) A simple oxidative stress assay was used to determine whether preconditioning with NRF2-ARE inducing drugs could protect against a subsequent oxidative stress insult (serum withdrawal). The NSC34, C6 and 1321N1 cells were plated in 96 well tissue culture plates to achieve 30% confluency. […] Media was then replaced with serum free, phenol free media for 5 hrs. […] Cell survival assay was then performed on the cells as protection is measured as % reduction in DCF signal, therefore data points were excluded where a decrease in cell number was measured.
(§2) Briefly methylthiazolyldiphenyl-tetrazolium bromide (MTT) was added to the cells and a blank well to a final concentration 0.5 mg/ml and incubated at 37° C. for 1-3 hrs depending on the cell line used.
In data set [2] the test system is NSC34 mouse motor neuronal cells. Kind of data set: NSC34 oxidative stress assay (serum withdrawal, DCF). To be noted: for Lowest dose with toxicity: NSC34; for Maximal % reduction in Oxidative stress: NSC34, DCF fluorescence, negative = pro-oxidant.
Experimental: as §1, §2
The next data set has as its system C6 (rat) astrocytic line. As to the kind of experiment: C6 oxidative stress assay (serum withdrawal, DCF). The note with it: for Lowest dose with toxicity: C6; for IC50: C6, 24 h pre-treatment, serum withdrawal, DCF; for Maximal % reduction in Oxidative stress: C6, DCF fluorescence.
Data set [3] deals with NRF2-ARE pathway in the CHO 4× ARE-TK cell line. As to the kind of experiment: ARE reporter assay in CHO 4×ARE-TK-GFP cell line (GFP induction, EthD1 toxicity). The note with it: for maximal fold induction: read-out: Average fold GFP induction at maximal response. On the procedure:
Chinese Hamster Ovary (CHO), NSC34 mouse motor neuronal cells, C6 (rat) and 1321N1 (human) astrocytic lines were routinely maintained in DMEM supplemented with 10% FBS and penicillin/streptomycin. […] These plasmids were transfected into CHO, C6 and 1321N1 cell lines using Lipofectamine 2000 (Invitrogen) and following 10-14 days of selection in 0.5 mg/ml G418 they were expanded and selected for basal eGFP expression using fluorescence activated cell sorting (BD, FACSAria) with two sequential cell sorts for each cell line. These mixed populations of stable transfectants with basal eGFP expression were used in subsequent assays and designated 4×ARE-TK-GFP for the ARE containing line and TK-GFP for the control cell line. […]
Confluent cultures of 4×ARE-TK-GFP CHO or TK-GFP CHO expressing cells in 96 or 384-well tissue-culture plates were treated with drug (0.01-100 µM in triplicate) or vehicle (0.1-1% DMSO) in FCS-free DMEM in triplicate for 24 hours. The media was removed and replaced with the same volume of PBS containing 0.3 μM EthD1. […] Non-linear regression was used to fit a sigmoidal dose-response curve on a semi-Log plot to calculate the EC50 using GraphPad Prism (GraphPad Software). The reporter assay was conducted in a similar fashion in C6 and 1321N1 astrocyte cell lines stably transfected with the 4×ARE-TK-GFP and TK-GFP constructs except that Eth D1 was added directly in the media and read prior to washing the cells once and reading the […] signal. […]
The compounds were applied in triplicate to confluent cells in 96 well plates in serum free medium for 24 hours and the induction of GFP measured in a fluorescence plate reader. […]

Where [4] appears, read: read-out: Average EC50, CHO 4×ARE-TK-GFP, GFP induction, 24 h.
[5] abbreviates: Cricetulus griseus, 24 h, read-out: Average EC50.

Counter-ions that a name gives are not always drawn. Like-named read-outs stand apart in the source and are kept apart here.

Experimental for C6 (rat) astrocytic line: as §1, §2

For orientation: IC50 means the concentration at which inhibition is half-maximal. One may read the EC50 as the midpoint of the concentration-response curve. On to `O=C(CC[N+](=O)[O-])OC[C@H]1O[C@@H](O)[C@H](OC(=O)CC[N+](=O)[O-])[C@@H](OC(=O)CC[N+](=O)[O-])[C@@H]1OC(=O)CC[N+](=O)[O-]` [endecaphyllin X], for which the “Lowest dose with toxicity” value was “none” in data set [1], 10 µM in data set [2], “none” in the data set on C6 (rat) astrocytic line and “None” in data set [3] (CHO ARE reporter assay). For the same compound, the figures for the “Maximal % reduction in Oxidative stress” value (in data set [1]; in data set [2]; with C6 (rat) astrocytic line) were 56%, 0% and 40%, respectively. Also, the IC50 in the data set on C6 (rat) astrocytic line was 3.15 µM. In data set [3] (CHO 4×ARE-TK-GFP, 24 h), the “Average fold GFP induction at maximal response” value (shortened to “Average fold GFP induction”) stood at 2.15 fold. Besides, the EC50 in data set [3] (setting [4]) worked out at 18.8 µM.

On to `O=C1C=C2C=C[C@@H]3C[C@@]2(O1)[C@H]1CCCCN31` [Securinine], for which the “Lowest dose with toxicity” value in data set [1] was “none”; in data set [2], “none”; in the data set with C6 (rat) astrocytic line, “none”; in data set [3] (CHO ARE reporter assay) it was 30 µM. Further, the IC50 in data set [1] was found to be 18.3 µM; in the data set on C6 (rat) astrocytic line it was 0.645 µM. In data set [3] (setting [5]), the EC50 is 2.12 µM. The maximal fold induction in data set [3] (Cricetulus griseus, 24 h) was determined as 3.

Turning to `O=C(CCBr)N1CCN(C(=O)CCBr)CC1` [Pipobroman, reference compound], the “Lowest dose with toxicity” value in data set [1] is 10 µM; in data set [2] it was “none”; in the data set on C6 (rat) astrocytic line it was “none”; in data set [3] (Chinese hamster, 24 h), 100 µM. Besides, the maximal fold induction in data set [3] (Cricetulus griseus, 24 h) was determined as 3.21.

Take `COc1cc(O)cc(OC)c1OC` [Antiarol]: the “Lowest dose with toxicity” value is “none” in data set [1]; 10 µM in data set [2]; 10 µM in the data set with C6 (rat) astrocytic line; 100 µM in data set [3] (Chinese hamster, 24 h). The maximal fold induction in data set [3] (Cricetulus griseus, 24 h) turned out to be 1.64.

Turning to `COc1cc(O)c(C)c(O)c1` [2,6-dihydroxy-4-methoxytoluene], the “Lowest dose with toxicity” value in data set [1] is “none”; in data set [2], “none”; in the data set on C6 (rat) astrocytic line it was 10 µM; in data set [3] (Chinese hamster, 24 h), 100 µM. Further, the maximal fold induction in data set [3] (Cricetulus griseus, 24 h) worked out at 3.05.

Regarding `O=C(/C=C/c1ccc(O)cc1)c1ccc(O)cc1O` [Isoliquintigenin, Isoliquiritigenin], the “Lowest dose with toxicity” value in data set [1] was “none”; in data set [2], 1 µM; with C6 (rat) astrocytic line, “none”; in data set [3] (Chinese hamster, 24 h), 30 µM. The IC50 with C6 (rat) astrocytic line was around 28 µM. Moreover, the maximal fold induction in data set [3] (Cricetulus griseus, 24 h) was 2.58.

For the compound `CN1CCc2cccc3c2[C@H]1Cc1ccc(O)c(O)c1-3` [Apomorphine hydrochloride, reference compound], the “Lowest dose with toxicity” value was “none” in data set [1]; 10 µM in data set [2]; “none” in the data set on C6 (rat) astrocytic line; 100 µM in data set [3] (Chinese hamster, 24 h). In data set [3] (Cricetulus griseus, 24 h), the maximal fold induction worked out at 1.9.

Regarding `Cc1[nH]c2ccccc2c1CN(C)C` [2 methyl gramine], the “Lowest dose with toxicity” value in data set [1] was “none”; in data set [2] it was 3 µM; in the data set with C6 (rat) astrocytic line, “none”; in data set [3] (CHO ARE reporter assay), 100 µM. Moreover, the IC50 in data set [1] came to 11 µM; in the data set on C6 (rat) astrocytic line, 32 µM. For the same compound, the entries for the “Maximal % reduction in Oxidative stress” value (in data set [1]; in data set [2]; in the data set on C6 (rat) astrocytic line) were 36%, −30% and 36%, respectively. Also, the “Average fold GFP induction” value in data set [3] (CHO 4×ARE-TK-GFP, 24 h) was found to be 2.27 fold. The EC50 in data set [3] (setting [4]) is 3 µM.

For the compound `Cc1cc(O)c(C)c(O)c1C(=O)O` [3 methylorsellinic acid], the “Lowest dose with toxicity” value was “none” in data set [1]; 0.3 µM in data set [2]; “none” in the data set on C6 (rat) astrocytic line; 100 µM in data set [3] (Chinese hamster, 24 h). The maximal fold induction in data set [3] (Cricetulus griseus, 24 h) was 2.87.

Consider `COC(=O)[C@H](O)[C@H]1C(C)(C)[C@H](OC(C)=O)[C@@H]2CC3=C4CC(=O)O[C@@H](c5ccoc5)[C@]4(C)CC[C@@H]3[C@@]1(C)C2=O` [swietenolide 3 acetate], for which the “Lowest dose with toxicity” value was “none” in data set [1], 0.3 µM in data set [2], “none” in the data set on C6 (rat) astrocytic line and 100 µM in data set [3] (CHO ARE reporter assay). Also, the “Maximal % reduction in Oxidative stress” value in data set [1] amounted to 60%; in data set [2], 0%; with C6 (rat) astrocytic line, 50%. For the same compound, the IC50 in the data set with C6 (rat) astrocytic line was 4.22 µM. The “Average fold GFP induction” value in data set [3] (CHO 4×ARE-TK-GFP, 24 h) is 2.82 fold. For the same compound, in data set [3] (setting [4]), the EC50 worked out at 3.5 µM.

Consider `CC(=O)Oc1ccc(O)cc1` [4 acetoxyphenol], for which the “Lowest dose with toxicity” value is “none” in data set [1]; “none” in data set [2]; “none” in the data set on C6 (rat) astrocytic line; 100 µM in data set [3] (Chinese hamster, 24 h). Moreover, the maximal fold induction in data set [3] (Cricetulus griseus, 24 h) is 2.78.

As for `COc1ccc2c(c1)OC/C(=C/c1ccc(OC)c(OC)c1)C2=O` [sappanone A trimethyl ether], the “Lowest dose with toxicity” value is “none” in data set [1], “none” in data set [2], “none” in the data set with C6 (rat) astrocytic line and 100 µM in data set [3] (CHO ARE reporter assay). Further, in data set [1], the IC50 came out at 0.279 µM. Besides, the “Maximal % reduction in Oxidative stress” value is on record as 40% in data set [1], −60% in data set [2] and 27% in the data set with C6 (rat) astrocytic line. In addition, the “Average fold GFP induction” value in data set [3] (CHO 4×ARE-TK-GFP, 24 h) was found to be 1.99 fold. In addition, the EC50 in data set [3] (setting [4]) was determined as 3.5 µM.

As to `CC1(C)C2CC(=O)O[C@@]3(C)C4=CC(=O)O[C@@H](c5ccoc5)[C@]4(C)CCC3[C@@]2(C)C=C[C@H]1O` (some centres unmarked) [Deoxyandirobin lactone], the “Lowest dose with toxicity” value was “none” in data set [1]; “none” in data set [2]; “none” in the data set on C6 (rat) astrocytic line; 100 µM in data set [3] (Chinese hamster, 24 h). The maximal fold induction in data set [3] (Cricetulus griseus, 24 h) worked out at 3.03.

Regarding Euphol acetate, the “Lowest dose with toxicity” value is “none” in data set [1], “none” in data set [2], “none” in the data set with C6 (rat) astrocytic line and 100 µM in data set [3] (CHO ARE reporter assay). For the same compound, the IC50 in data set [1] came to 18 µM. For the same compound, the “Maximal % reduction in Oxidative stress” value in data set [1] is given as 38%; in data set [2] it was −43%; in the data set on C6 (rat) astrocytic line, 0%. In addition, the “Average fold GFP induction” value in data set [3] (CHO 4×ARE-TK-GFP, 24 h) is 2.20 fold. Also, in data set [3] (setting [4]), the EC50 was around 99 µM.

With `C=C(C)/C=C1/C=CC(=O)C(C)=C1` [Retusoquinone], the “Lowest dose with toxicity” value in data set [1] was “none”; in data set [2], “none”; in the data set on C6 (rat) astrocytic line, “none”; in data set [3] (Chinese hamster, 24 h), 100 µM. Further, the EC50 in data set [3] (Cricetulus griseus, 24 h, read-out: Average EC50, CHO 4×ARE-TK-GFP, GFP induction, 24 h) is around 35 µM. For the same compound, in data set [3] (Cricetulus griseus, 24 h), the maximal fold induction came out at 2.04.

Turning to `COc1ccc(/C=C/C(=O)c2ccccc2)cc1` [4 methoxychalcone], the “Lowest dose with toxicity” value is “none” in data set [1], “none” in data set [2], “none” in the data set on C6 (rat) astrocytic line and 100 µM in data set [3] (CHO ARE reporter assay). In addition, the results for the IC50 (in data set [1]; with C6 (rat) astrocytic line) were 3.6 µM and 3.55 µM, respectively. Besides, the EC50 in data set [3] (setting [5]) was 15 µM. Moreover, the maximal fold induction in data set [3] (Cricetulus griseus, 24 h) turned out to be 2.13.

With `CC(=O)O[C@@H]1C[C@H]2C(C)(C)C(=O)C=C[C@]2(C)[C@H]2CC[C@]3(C)C(=CC(=O)O[C@H]3c3ccoc3)[C@@]21C` [deoxygedunin], the “Lowest dose with toxicity” value is 10 µM in data set [1], 10 µM in data set [2], “none” in the data set with C6 (rat) astrocytic line and 30 µM in data set [3] (CHO ARE reporter assay). Moreover, the values for the IC50 (in data set [1]; with C6 (rat) astrocytic line) were 1.41 µM and 2.19 µM, respectively. Further, the results for the “Maximal % reduction in Oxidative stress” value (in data set [1]; in data set [2]; in the data set with C6 (rat) astrocytic line) were 25%, 7% and 61%, respectively. Besides, the “Average fold GFP induction” value in data set [3] (CHO 4×ARE-TK-GFP, 24 h) is 1.82 fold. In data set [3] (setting [4]), the EC50 stood at 1.15 µM.
